According to ChEMBL document CHEMBL1201862, “PubChem BioAssay data set” (2004):
Where “and” joins values, the source holds several entries; their conditions need not be identical. Equal entries are not always repeated.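 How tested: cells in 96-well plates exposed to compound for 48 hours at five concentrations. Abbreviation: GI50, concentration required for 50% inhibition of growth.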 Calls of active or inactive are those of the source. Rule as the data show it: active = GI50 up to about 1.1 µM and inactive = higher.

What was measured:
Assay in all cases: inhibition of tumour cell growth, NCI panel, 48 h
[1] = tested on: OVCAR-5
[2] = tested on: SNB-75
[3] = tested on: MDA-MB-435
[4] = tested on: T47D
[5] = tested on: SK-MEL-2
[6] = tested on: HL-60
[7] = tested on: HOP-62
[8] = tested on: A549
[9] = tested on: OVCAR-4
[10] = tested on: SW-620
[11] = tested on: CCRF-CEM
[12] = tested on: NCI-H23
[13] = tested on: NCI/ADR-RES
[14] = tested on: SK-OV-3
[15] = tested on: SF-268
[16] = tested on: SR
[17] = tested on: CAKI-1
[18] = tested on: MCF7
[19] = tested on: UACC-62
[20] = tested on: M14
[21] = tested on: RPMI-8226
[22] = tested on: 786-0
[23] = tested on: IGROV-1
[24] = tested on: K562
[25] = tested on: MOLT-4
[26] = tested on: U-251
[27] = tested on: ACHN
[28] = tested on: SK-MEL-28
[29] = tested on: COLO 205
[30] = tested on: RXF 393
[31] = tested on: Malme-3M
[32] = tested on: SK-MEL-5
[33] = tested on: NCI-H460
[34] = tested on: SN12C
[35] = tested on: HT-29
[36] = tested on: TK-10
[37] = tested on: HCC 2998
[38] = tested on: EKVX
[39] = tested on: BT-549
[40] = tested on: HOP-92
[41] = tested on: UACC-257
[42] = tested on: HCT-116
[43] = tested on: DU-145
[44] = tested on: SNB-19
[45] = tested on: MDA-N
[46] = tested on: A498
[47] = tested on: OVCAR-8
[48] = tested on: HCT-15
[49] = tested on: MDA-MB-231
[50] = tested on: OVCAR-3
[51] = tested on: LOX IMVI
[52] = tested on: SF-295
[53] = tested on: UO-31
[54] = tested on: SF-539
[55] = tested on: NCI-H226
[56] = tested on: KM12
[57] = tested on: PC-3
[58] = tested on: NCI-H522

Measured: GI50

O=C1c2ccccc2-c2nnc(-c3ccccc3)cc21
inactive: [1] > 10 µM | [2] > 10 µM | [3] > 10 µM | [4] 4.48 µM | [5] > 10 µM | [6] 5.05 µM | [7] > 10 µM | [8] > 10 µM | [9] > 10 µM | [10] 7.6 µM | [11] 3.25 µM | [12] > 10 µM | [13] > 10 µM | [14] > 10 µM | [15] > 10 µM | [16] 3.83 µM | [17] > 10 µM | [18] 3.37 µM | [19] > 10 µM | [20] > 10 µM | [21] > 10 µM | [22] > 10 µM | [23] > 10 µM | [24] 3.61 µM | [25] 3.01 µM | [26] > 10 µM | [27] > 10 µM | [28] > 10 µM | [29] > 10 µM | [30] > 10 µM | [31] > 10 µM | [32] > 10 µM | [33] > 10 µM

COC(=O)CCc1cc(OC)c2c(c1)C(C(=O)OC)C(c1ccc(OC)c(OC)c1)O2 (configuration not stated)
inactive: [1] > 79.1 µM | [2] 10.6 µM | [4] 24.8 µM | [34] 62.4 µM | [35] 5.32 µM | [36] > 100 µM and > 91.4 µM | [9] > 100 µM and 58.5 µM | [37] 60.5 µM | [12] > 100 µM and > 71 µM | [38] > 52.5 µM | [39] 22.6 µM and 42.4 µM | [40] > 95.7 µM | [27] 59.2 µM | [41] > 100 µM | [30] 34.9 µM

C=C1c2nc3ccccc3n2C=C(c2ccccc2)N1c1ccccc1
inactive: [42] 13.5 µM | [1] > 100 µM | [2] > 100 µM | [3] 40.5 µM | [5] 73.5 µM | [34] 92.5 µM | [36] 49 µM | [43] > 100 µM | [6] 58.7 µM | [44] 40.4 µM | [45] 39.8 µM | [46] 65.3 µM | [8] 30.3 µM | [9] 16.4 µM | [10] 40.3 µM | [47] 37.8 µM | [11] 53.3 µM | [37] 12.5 µM | [12] 33.7 µM | [13] 34 µM | [14] > 100 µM | [16] 21.7 µM | [17] 81.7 µM | [49] > 100 µM | [18] 14.6 µM | [19] 43.1 µM | [20] 67.9 µM | [38] > 100 µM | [39] 24.5 µM | [21] 17.3 µM | [22] > 100 µM | [50] > 100 µM | [51] 42.2 µM | [40] 50.4 µM | [52] 32.1 µM | [23] > 100 µM | [53] 25.7 µM | [54] 43.6 µM | [55] 57.4 µM | [24] 34.5 µM | [25] 21.4 µM | [26] 58.6 µM | [27] 49.4 µM | [56] 24.8 µM | [57] 34.3 µM | [29] 52.5 µM | [58] 15.8 µM | [41] 74.1 µM | [30] 22.4 µM | [31] > 100 µM | [32] 17.1 µM | [33] 27.5 µM
13.6 µM: [48]

Cc1cc(NCCCCCCNc2cc(C)nc3ccc(N)cc23)c2cc(N)ccc2n1
inactive: [44] 58.5 µM | [26] 62.8 µM

O=C1Oc2ccccc2C(=O)/C1=C/NC(=S)Nc1ccccc1
28.3 µM: [48]
active: [19] 0.834 µM | [30] 0.119 µM
inactive: [42] 34.8 µM | [1] 80.4 µM | [2] 20.4 µM | [4] 5.96 µM | [5] 15.1 µM | [34] 40.1 µM | [43] 46.1 µM | [7] 33.6 µM | [45] 37.8 µM | [46] 24.6 µM | [8] 48.8 µM | [9] 39.6 µM | [47] 44.3 µM | [11] 28.5 µM | [37] 40 µM | [12] 61.4 µM | [13] 38.5 µM | [15] 22.3 µM | [49] 29 µM | [20] 27 µM | [38] 56.5 µM | [50] 25.4 µM | [51] 51.1 µM | [52] 52.2 µM | [54] 28.7 µM | [55] 65.9 µM | [24] 56.4 µM | [25] 31.8 µM | [27] 23.6 µM | [56] 49.4 µM | [28] 44.2 µM | [57] 55.6 µM | [29] 44.7 µM | [58] 30.1 µM | [41] 77.6 µM | [32] 42.5 µM | [33] 32.1 µM

C=CCCC1(O)C(O)C(CO)O[C@H](O[C@@]2(CO)OC(CO)C(O)C2O)C1O (some centres not stated)
inactive: [42] > 100 µM | [1] > 100 µM | [2] > 100 µM | [3] > 100 µM | [5] > 10 µM | [34] > 100 µM | [35] > 100 µM | [36] > 100 µM | [43] > 100 µM | [6] > 100 µM | [7] > 100 µM | [44] > 100 µM | [8] > 100 µM | [9] > 100 µM | [10] > 100 µM | [47] > 100 µM | [11] > 100 µM | [12] > 100 µM | [13] > 100 µM | [15] > 100 µM | [16] > 100 µM | [17] > 100 µM | [49] > 100 µM | [18] > 100 µM | [20] > 100 µM | [38] > 100 µM | [39] > 100 µM | [21] > 100 µM | [22] > 100 µM | [51] > 100 µM | [40] > 100 µM | [52] > 100 µM | [23] > 100 µM | [54] > 100 µM | [55] > 100 µM | [24] > 100 µM | [25] > 100 µM | [26] > 100 µM | [27] > 100 µM | [56] > 100 µM | [28] > 100 µM | [57] > 100 µM | [29] > 100 µM | [58] > 100 µM | [41] > 100 µM | [31] > 100 µM | [32] > 100 µM | [33] > 100 µM
> 100 µM: [48]

CCOP(C)(=O)C(Cc1c[nH]c2ccccc12)C(=O)O (configuration not stated)
inactive: [42] > 100 µM | [1] > 100 µM | [2] > 100 µM | [3] > 100 µM | [4] > 100 µM | [5] > 100 µM | [34] > 100 µM | [35] > 100 µM | [43] > 100 µM | [6] > 100 µM | [7] > 100 µM | [44] > 100 µM | [45] > 100 µM | [46] > 100 µM | [8] > 100 µM | [10] > 100 µM | [47] > 100 µM | [11] > 100 µM | [37] > 100 µM | [13] > 100 µM | [14] > 100 µM | [15] > 100 µM | [16] > 100 µM | [17] > 100 µM | [49] > 100 µM | [18] > 100 µM | [19] > 100 µM | [20] > 100 µM | [38] > 100 µM | [39] > 100 µM | [21] > 100 µM | [22] > 100 µM | [50] > 100 µM | [40] > 100 µM | [52] > 100 µM | [23] > 100 µM | [53] > 100 µM | [54] > 100 µM | [24] > 100 µM | [25] > 100 µM | [26] > 100 µM | [27] > 100 µM | [56] > 100 µM | [28] > 100 µM | [57] > 100 µM | [29] > 100 µM | [58] > 100 µM | [31] > 100 µM | [32] > 100 µM
> 100 µM: [48]
